Assay results published in article PMC6981581, “N-(2-Arylmethylthio-4-Chloro-5-Methylbenzenesulfonyl)amide Derivatives as Potential Antimicrobial Agents—Synthesis and Biological Studies” (International Journal of Molecular Sciences, 2019).
Converted amounts (≈) assume the structure as drawn. “And” between values parts separate entries of the source, which are not always exact repeats. Equal entries are not always repeated. Where two headings read alike, the source gives them in different places.

Key:
[1] = system: clinical isolates of methicillin-resistant S. aureus (50–54) and methicillin-sensitive S. aureus (55–59); assay: Broth dilution MIC/MBC, summary over clinical S. aureus isolates; format: cell-based, Staphylococcus aureus
Description: (§1) […]. Both MRSA and MSSA strains were derived from various human infections.
(§2) […]. Five methicillin-resistant S. aureus strains were isolated from nose (n = 1), bronchoalveolar lavage (n = 1), sputum (n = 1), wound (n = 1), and blood (n = 1); five methicillin-susceptible S. aureus strains were isolated from throat (n = 1), bronchoalveolar lavage (n = 1), sputum (n = 1), abscess (n = 1), and blood (n = 1).
(§3) The identity of S. aureus isolates was confirmed with conventional methods and with Pastorex Staph-Plus latex agglutination kit (Bio-Rad, Marnes-la-Coquette, France) and verified applying the polymerase chain reaction (PCR) of S. aureus-specific region of the thermonuclease gene, nuc. Resistance to methicillin was first verified using cefoxitin disk (30 µg), and then, identified based on the presence of mecA gene. S. aureus ATCC®25923 (methicillin-susceptible) and S. aureus ATCC®43300 (MDR) were applied as the reference strains. Both the reference and clinical strains were stored at −80 °C, in Tryptic Soy Broth (TSB, Becton-Dickinson, Franklin Lakes, NJ, USA) supplemented with 15% glycerol.
(§4) A broth dilution method was used to determine minimal inhibitory concentration (MIC) for tested compounds as recommended by Clinical Laboratory Standards Institute (CLSI) guidelines. Investigated compounds were diluted in Mueller Hinton Broth 2 (Sigma-Aldrich Co., St. Louis, MO, USA) in polypropylene 96-well plates and initial inoculum 5 × 10^5 cfu/mL were incubated at 37 °C for 18 h. MIC was taken as the lowest drug concentration at which an observable growth was inhibited. […] The loopful (10 µL) of the tested sample was transferred to Tryptic Soy Agar (TSA, Becton-Dickinson, Franklin Lakes, NJ, USA) and incubated at 37 °C for 48 h. […] Drug Solutions were made fresh on the day of the assay. All experiments were performed in triplicate.

[2] = system: Escherichia coli ATCC 11229; assay: Broth dilution MIC/MBC, reference strain; format: cell-based; details: Escherichia coli, ATCC11229
Procedure: (§5) The tests were carried out using a serial dilution method, allowing the determination of MIC (minimal concentration inhibiting bacterial growth), MBC (minimal bactericidal concentration), and MFC (minimal fungicidal concentration) values.
(§6) Antimicrobial activity was tested using the following reference strains: Staphylococcus aureus ATCC 6538 (MSSA), Staphylococcus aureus ATCC 43300 (MRSA), Staphylococcus epidermidis PCM 2118, Escherichia coli ATCC 11229, Pseudomonas aeruginosa ATCC 15442, Proteus vulgaris NCTC 4635, Enterococcus faecalis ATCC 11420, and Candida albicans ATCC 10231.
as §4

[3] = system: Pseudomonas aeruginosa ATCC 15442; assay: Broth dilution MIC/MBC, reference strain; format: cell-based; details: Pseudomonas aeruginosa, ATCC15442
Procedure: as §5, §6, §4

[4] = system: Proteus vulgaris NCTC 4635; assay: Broth dilution MIC/MBC, reference strain; format: cell-based; details: Proteus vulgaris, NCTC4635
Procedure: as §5, §6, §4

[5] = system: Staphylococcus aureus ATCC 43300 (MRSA); assay: Broth dilution MIC/MBC, reference strain; format: cell-based; details: Staphylococcus aureus
Procedure: as §5, §6, §4

[6] = system: Enterococcus faecalis ATCC 11420; assay: Broth dilution MIC/MBC, reference strain; format: cell-based; details: Enterococcus faecalis, ATCC11420
Procedure: as §5, §6, §4

[7] = system: Staphylococcus aureus ATCC 6538 (MSSA); assay: Broth dilution MIC/MBC, reference strain; format: cell-based; details: Staphylococcus aureus
Procedure: as §5, §6, §4

[8] = system: Staphylococcus epidermidis PCM 2118; assay: Broth dilution MIC/MBC, reference strain; format: cell-based
Procedure: as §5, §6, §4

S.aureus 57 (MSSA) = assay: Broth dilution MIC/MBC, clinical MSSA isolate; format: cell-based; details: Staphylococcus aureus, MSSA
Description: as §1, §2, §3, §4

S.aureus 59 (MSSA) = assay: Broth dilution MIC/MBC, clinical MSSA isolate; format: cell-based; details: Staphylococcus aureus, MSSA
Description: as §1, §2, §3, §4

S.aureus 58 (MSSA) = assay: Broth dilution MIC/MBC, clinical MSSA isolate; format: cell-based; details: Staphylococcus aureus, MSSA
Description: as §1, §2, §3, §4

S.aureus 55 (MSSA) = assay: Broth dilution MIC/MBC, clinical MSSA isolate; format: cell-based; details: Staphylococcus aureus, MSSA
Description: as §1, §2, §3, §4

S.aureus 56 (MSSA) = assay: Broth dilution MIC/MBC, clinical MSSA isolate; format: cell-based; details: Staphylococcus aureus, MSSA
Description: as §1, §2, §3, §4

[9] = system: HaCaT cell line (human keratinocyte); assay: MTT cell viability assay; format: cell-based; details: 72 h, read-out: IC50 HaCaT
S.aureus 50 (MRSA) = assay: Broth dilution MIC/MBC, clinical MRSA isolate; format: cell-based; details: Staphylococcus aureus, MRSA
Description: as §1, §2, §3, §4

S.aureus 51 (MRSA) = assay: Broth dilution MIC/MBC, clinical MRSA isolate; format: cell-based; details: Staphylococcus aureus, MRSA
Description: as §1, §2, §3, §4

S.aureus 53 (MRSA) = assay: Broth dilution MIC/MBC, clinical MRSA isolate; format: cell-based; details: Staphylococcus aureus, MRSA
Description: as §1, §2, §3, §4

S.aureus 52 (MRSA) = assay: Broth dilution MIC/MBC, clinical MRSA isolate; format: cell-based; details: Staphylococcus aureus, MRSA
Description: as §1, §2, §3, §4

S.aureus 54 (MRSA) = assay: Broth dilution MIC/MBC, clinical MRSA isolate; format: cell-based; details: Staphylococcus aureus, MRSA
Description: as §1, §2, §3, §4

[10] = system: Candida albicans ATCC 10231; assay: Broth dilution MIC/MFC, reference fungal strain; format: cell-based; details: Candida albicans, ATCC10231
Procedure: as §5, §6, §4

MRSA 51 biofilm = assay: Biofilm inhibition assay (crystal violet); format: cell-based, Staphylococcus aureus
Procedure: (§7) For many decades, S. aureus has been identified as the most common etiologic agent of device related infections, associated with biofilm formation. These infections are hard to cure because the specific structure of biofilm confers resistance to the host immune response and to the action of antibiotics.
(§8) Then, 100 µL bacterial suspension prepared from fresh overnight culture by diluting with TSB to obtain the initial inoculum 2 × 10^6 CFU/mL was added. The plates were incubated for 24 h at 37 °C. After the incubation, the wells were discarded and were gently rinsed three times with PBS to remove planktonic staphylococcal cells. Then, contents of the wells were discarded and the biofilm was fixed with 200 µL methanol for 20 min and dried at room temperature for 30 min. The biofilm was stained by adding 200 µL 1.8% crystal violet solution for 15 min. After staining, the plates were rinsed with water and 200 µL bleaching solution (30% ethanol, 30% glacial acetic acid, 40% water) added for 15 min to dissolve the remaining crystal violet. A microplater reader was used to measure the absorbance of the adherent biofilm at 570 nm (OD570). […] The negative control included only the growth medium.

MSSA 59 biofilm = assay: Biofilm inhibition assay (crystal violet); format: cell-based, Staphylococcus aureus; details: MSSA 59, 4 × MIC
Procedure: as §7, §8

MRSA 52 biofilm = assay: Biofilm inhibition assay (crystal violet); format: cell-based, Staphylococcus aureus; details: MRSA 52, 4 × MIC
Procedure: as §7, §8

MSSA 58 biofilm = assay: Biofilm inhibition assay (crystal violet); format: cell-based, Staphylococcus aureus
Procedure: as §7, §8

[11] = system: Gram-positive reference strains; assay: Broth dilution MIC/MBC, summary over Gram-positive reference strains; format: cell-based
Procedure: […]. The tests were carried out using a serial dilution method, allowing the determination of MIC (minimal concentration inhibiting bacterial growth), MBC (minimal bactericidal concentration), and MFC (minimal fungicidal concentration) values.
as §6, §4

Work on `Cc1cc(S(=O)(=O)NC(=O)C=Cc2ccccc2)c(SCc2cccc3ccccc23)cc1Cl` [Compound 16, N-[4-Chloro-5-methyl-2-(naphthalen-1-ylmethylthio)benzenesulfonyl]cinnamamide] yielded an MBC ([1]; Staphylococcus aureus) greater than 128 µg/mL, an MIC ([1]; Staphylococcus aureus) of 4 to 8 µg/mL (≈ 7.87 to 15.7 µM) and an MIC ([1]; summary over ten clinical MRSA and MSSA isolates (Table 4)) of 4 to 8 µg/mL. It also gave an MBC [2] greater than 128 µg/mL, an MIC [2] of 128 µg/mL (≈ 252 µM) and an MBC [3] greater than 128 µg/mL. For the same compound, the MIC [3] was 128 µg/mL (≈ 252 µM), the MBC [4] was greater than 128 µg/mL and the MIC [4] was 128 µg/mL (≈ 252 µM). It also gave an MBC [5] greater than 128 µg/mL, an MIC [5] of 4 µg/mL (≈ 7.87 µM) and an MBC [6] greater than 128 µg/mL. The MIC [6] was 8 µg/mL (≈ 15.7 µM), the MBC [7] was greater than 128 µg/mL and the MIC [7] was 4 µg/mL (≈ 7.87 µM). For the same compound, the MBC ([8]; S. epidermidis PCM 2118) was 4 µg/mL (≈ 7.87 µM), the MIC ([8]; Staphylococcus epidermidis, PCM2118) was 4 µg/mL (≈ 7.87 µM) and the MBC ([8]; Staphylococcus epidermidis, PCM2118, S. epidermidis PCM 2118, read-out: MBC) was 4 to 16 µg/mL (≈ 7.87 to 31.5 µM). The MBC (S.aureus 57 (MSSA)) was greater than 128 µg/mL, the MIC (S.aureus 57 (MSSA)) was 4 µg/mL (≈ 7.87 µM) and the MBC (S.aureus 59 (MSSA)) was greater than 128 µg/mL. For the same compound, the MIC (S.aureus 59 (MSSA)) was 4 µg/mL (≈ 7.87 µM), the MBC (S.aureus 58 (MSSA)) was greater than 128 µg/mL and the MIC (S.aureus 58 (MSSA)) was 8 µg/mL (≈ 15.7 µM). For the same compound, the MBC (S.aureus 55 (MSSA)) was greater than 128 µg/mL, the MIC (S.aureus 55 (MSSA)) was 4 µg/mL (≈ 7.87 µM) and the MBC (S.aureus 56 (MSSA)) was greater than 128 µg/mL. For the same compound, the MIC (S.aureus 56 (MSSA)) was 4 µg/mL (≈ 7.87 µM), the IC50 [9] was 19 µg/mL and 38 µM and the MBC (S.aureus 50 (MRSA)) was greater than 128 µg/mL. The MIC (S.aureus 50 (MRSA)) was 4 µg/mL (≈ 7.87 µM), the MBC (S.aureus 51 (MRSA)) was greater than 128 µg/mL and the MIC (S.aureus 51 (MRSA)) was 4 µg/mL (≈ 7.87 µM). It also gave an MBC (S.aureus 53 (MRSA)) greater than 128 µg/mL, an MIC (S.aureus 53 (MRSA)) of 8 µg/mL (≈ 15.7 µM) and an MBC (S.aureus 52 (MRSA)) greater than 128 µg/mL. For the same compound, the MIC (S.aureus 52 (MRSA)) was 4 µg/mL (≈ 7.87 µM), the MBC (S.aureus 54 (MRSA)) was greater than 128 µg/mL and the MIC (S.aureus 54 (MRSA)) was 8 µg/mL (≈ 15.7 µM). For the same compound, the MFC [10] was 128 µg/mL (≈ 252 µM), the MIC [10] was 64 µg/mL (≈ 126 µM) and the “inhibition of biofilm formation” value (MRSA 51 biofilm; MRSA 51, 4 × MIC) was 87–90%. The “inhibition of biofilm formation” value (MRSA 51 biofilm; MRSA 51, concentration equal to the MIC) was 35%, the “inhibition of biofilm formation” value (MSSA 59 biofilm) was 87–90% and the “inhibition of biofilm formation” value (MRSA 52 biofilm) was 87–90%. For the same compound, the “inhibition of biofilm formation” value (MSSA 58 biofilm; MSSA 58, 2 × MIC) was 86%, the “inhibition of biofilm formation” value (MSSA 58 biofilm; MSSA 58, concentration equal to the MIC) was 44% and the MIC [11] was 4 to 8 µg/mL (≈ 7.87 to 15.7 µM).
